Where two headings read alike, the source gives them in different places.
Assays:
eNOS promoter = experiment: Activation of eNOS transcription (eNOS promoter-luciferase reporter gene assay); assay type: cell-based, human; settings: 18 h incubation; for maximal fold induction / TIR (max): maximum transcription induction ratio (luciferase with compound / solvent alone); for maximal fold induction: read-out: TIR (max); for EC50: EC50 of transcription induction ratio, determined graphically, human endothelial cell line, read-out: EC-50
Procedure: Measurement of activation of eNOS transcription Activation of eNOS transcription was measured as described in detail in Li et al. “Activation of protein kinase C alpha and/or epsilon enhances transcription of the human endothelial nitric oxide synthase gene”, Mol. Pharmacol. 1998; 53: 630-637. Briefly, a 3.5 kB long fragment 5′ of the starting codon of the eNOS gene was cloned, sequenced and cloned in firefly luciferase expression plasmids to monitor activation of the eNOS promoter by reporter gene activity. A human endothelial cell line stable transfected and expressing this promoter-reporter construct was used for compound testing. Cells were incubated for 18 h with compounds. All compounds were dissolved in sterile DMSO. A final concentration of 0.5% DMSO in complete medium was allowed. Induction of reporter gene expression in these cells was measured using a standard luciferase assay system (Promega, Cat. No E150) according to the manufacturer's instructions. Luciferase induction in cells incubated with compounds were compared to those incubated with solvent alone. The ratio of both activities (transcription induction ratio, TIR) was plotted as a function of compound concentration. […] EC50 values of transcription induction ratios as a function of compound concentration were determined graphically.

[1] = Homo sapiens, Endothelial cell, 18 h

Structure (SMILES) | melting point [°C] | maximal fold induction (eNOS promoter; Homo sapiens, 18 h) | EC50 (eNOS promoter; [1]) [µM] | EC50 (eNOS promoter) [µM] | TIR (max) (eNOS promoter)
COc1cc2c(cc1OC)CC(NC(=O)c1ccc(F)cc1)C2 [Compound 3, 4-FLUORO-N-(5,6-DIMETHOXY-INDAN-2-YL)-BENZAMIDE] | 160 |  |  |  | 
O=C(NC1Cc2ccccc2C1)c1ccc(OCc2ccccc2)cc1 [Compound 40, 4-BENZYLOXY-N-INDAN-2-YL-BENZAMIDE] | 158.5 |  |  |  | 
Cc1c(C(=O)NC2Cc3ccccc3C2)cccc1C(F)(F)F [Compound 361, N-INDAN-2-YL-2-METHYL-3-TRIFLUOROMETHYL-BENZAMIDE] |  | 2.5 | 21 |  | 
Cc1cc(Br)c(C(=O)NC2Cc3ccccc3C2)s1 [Compound 364, 3-BROMO-5-METHYL-THIOPHENE-2-CARBOXYLIC ACID INDAN-2-YLAMIDE] |  | 2.9 | 2.1 |  | 
Cc1sccc1C(=O)NC1Cc2ccccc2C1 [Compound 365, 2-METHYL-THIOPHENE-3-CARBOXYLIC ACID INDAN-2-YLAMIDE] |  | 3 | 0.25 |  | 
CCc1sccc1C(=O)NC1Cc2ccccc2C1 [Compound 366, 2-ETHYL-THIOPHENE-3-CARBOXYLIC ACID INDAN-2-YLAMIDE] |  | 2.5 | 37 |  | 
Cc1cc(C(=O)NC2Cc3ccccc3C2)c(C)s1 [Compound 368, 2,5-DIMETHYL-THIOPHENE-3-CARBOXYLIC ACID INDAN-2-YLAMIDE] |  | 2.5 | 17 |  | 
CC(C)C(=O)Nc1cccc(C(=O)NC2Cc3ccccc3C2)c1 [Compound 372, N-INDAN-2-YL-3-ISOBUTYRYLAMINO-BENZAMIDE] |  | 2.7 | 1.6 |  | 
CCCC(=O)Nc1cccc(C(=O)NC2Cc3ccccc3C2)c1 [Compound 375, 3-BUTYRYLAMINO-N-INDAN-2-YL-BENZAMIDE] |  | 2.3 | 8 |  | 
O=C(NC1Cc2ccccc2C1)c1cccc(NC(=O)C2CC2)c1 [Compound 376, 3-(CYCLOPROPANECARBONYL-AMINO)-N-INDAN-2-YL-BENZAMIDE] |  | 2.4 | 5.3 |  | 
CC(C)(C)C(=O)Nc1cccc(C(=O)NC2Cc3ccccc3C2)c1 [Compound 380, 3-(2,2-DIMETHYL-PROPIONYLAMINO)-N-INDAN-2-YL-BENZAMIDE] |  | 2.6 | 2.3 |  | 
Cc1ccc(C(=O)Nc2cccc(C(=O)NC3Cc4ccccc4C3)c2)cc1 [Compound 381, 3-(4-METHYL-BENZOYLAMINO)-BENZOIC ACID INDAN-2-YLAMIDE] |  | 2.5 | 12 |  | 
O=C(NC1Cc2ccccc2C1)c1cccc(Br)c1 [Compound 382, 3-BROMO-N-INDAN-2-YL-BENZAMIDE] |  | 2.5 | 21 |  | 
Nc1c(C(=O)NC2Cc3ccccc3C2)cnn1-c1ccccn1 [Compound 386A, 5-AMINO-1-PYRIDIN-2-YL-1H-PYRAZOLE-4-CARBOXYLIC ACID INDAN-2-YLAMIDE] |  | 3.3 | 5.1 |  | 
O=C(NC1Cc2ccccc2C1)c1ccc(OCC(F)(F)F)cc1 [Compound 386B, N-INDAN-2-YL-4-(2,2,2-TRIFLUORO-ETHOXY)-BENZAMIDE] |  | 2.5 | 0.309 |  | 
O=C(NC1Cc2ccccc2C1)c1ccc(Cl)nc1 [Compound 387, 6-CHLORO-N-INDAN-2-YL-NICOTINAMIDE] |  | 2.6 | 32 |  | 
CS(=O)(=O)Nc1cccc(C(=O)NC2Cc3ccccc3C2)c1 [Compound 388, N-INDAN-2-YL-3-METHANE SULFONYLAMINO-BENZAMIDE] |  |  |  | 1.1 | 2.4
O=C(NC1Cc2ccc([N+](=O)[O-])cc2C1)c1ccc(F)cc1 (stereo not shown) [Compound 389, 4-FLUORO-N-(5-NITRO-INDAN-2-YL)-BENZAMIDE] | 167 |  |  |  | 

Structure (SMILES) | melting point [°C] | maximal fold induction (eNOS promoter; Homo sapiens, 18 h) | EC50 (eNOS promoter; [1]) [µM] | EC50 (eNOS promoter) [µM] | TIR (max) (eNOS promoter)
O=C(NC1Cc2cc(Br)c(Br)cc2C1)c1ccc(F)cc1 [Compound 397, N-(5,6-DIBROMO-INDAN-2-YL)-4-FLUORO-BENZAMIDE] |  | 1.7 | 30 |  | 
O=C(NC1Cc2ccc(-c3ccc(F)cc3)cc2C1)c1ccc(F)cc1 (stereo not shown) [Compound 398A, 4-FLUORO-N-[5-(4-FLUOROPHENYL)-INDAN-2-YL]-BENZAMIDE] | 193 |  |  |  | 
CC(=O)c1ccc2c(c1)CC(NC(=O)c1ccc(F)cc1)C2 (stereo not shown) [Compound 399, N-(5-ACETYL-INDAN-2-YL)-4-FLUORO-BENZAMIDE] | 148 |  |  |  | 
CC(O)c1ccc2c(c1)CC(NC(=O)c1ccc(F)cc1)C2 (stereo not shown) [Compound 402, 4-FLUORO-N-[5-(1-HYDROXY-ETHYL)-INDAN-2-YL]-BENZAMIDE] | 135 |  |  |  | 
O=C(NC1Cc2ccc(OS(=O)(=O)c3ccccc3)cc2C1)c1ccc(F)cc1 (stereo not shown) [Compound 405, BENZENESULFONIC ACID 2-(4-FLUOROBENZOYLAMINO)-INDAN-5-YL ESTER] |  | 2.8 | 30 |  | 
O=C(NC1Cc2cccc(I)c2C1)c1ccc(F)cc1 (stereo not shown) [Compound 408, 4-FLUORO-N-(4-IODO-INDAN-2-YL)-BENZAMIDE] |  | 2.5 | 11 |  | 
CN(C)C(=O)C=Cc1cccc2c1CC(NC(=O)c1ccc(F)cc1)C2 (stereo not shown) [Compound 411, N-[4-(2-DIMETHYLCARBAMOYL-VINYL)-INDAN-2-YL]-4-FLUORO-BENZAMIDE] |  | 2.5 | 2 |  | 
O=C(NC1Cc2cccc(C=CC(=O)N3CCOCC3)c2C1)c1ccc(F)cc1 (stereo not shown) [Compound 412, 4-FLUORO-N-[4-(3-MORPHOLIN-4-YL-3-OXO-PROPENYL)-NDAN-2-YL]-BENZAMIDE] |  |  |  | 1 | 2.5
O=C(C=Cc1cccc2c1CC(NC(=O)c1ccc(F)cc1)C2)Nc1ccc(Cl)cc1 (stereo not shown) [Compound 413, N-{4-[2-(4-CHLORO-PHENYLCARBAMOYL)-VINYL]-INDAN-2-YL}-4-FLUORO-BENZAMIDE] |  | 2.5 | 8.5 |  | 
Nc1c(C(=O)NC2Cc3ccccc3C2)cnn1-c1ccccc1 [Compound 427, 5-AMINO-1-PHENYL-1H-PYRAZOLE-4-CARBOXYLIC ACID INDAN-2-YLAMIDE] |  | 2.5 | 3.7 |  | 
CCc1cccc2c1CC(NC(=O)c1ccc(F)cc1)C2 (stereo not shown) [Compound 428, N-(4-ETHYL-INDAN-2-YL)-4-FLUORO-BENZAMIDE] |  | 2.8 | 0.841 |  | 
O=C(NC1Cc2c(I)ccc(I)c2C1)c1ccc(F)cc1 [Compound 429, N-(4,7-DIIODO-INDAN-2-YL)-4-FLUORO-BENZAMIDE] |  | 2.8 | 0.6 |  | 
O=C(NC1Cc2ccccc2C1)c1cccc(-c2cccnc2)c1 [Compound 432, N-INDAN-2-YL-3-PYRIDIN-3-YL-BENZAMIDE] |  | 2.5 | 9.6 |  | 
O=C(NC1Cc2ccccc2C1)c1cccc(-c2ccccn2)c1 [Compound 433, N-INDAN-2-YL-3-PYRIDIN-2-YL-BENZAMIDE] |  | 2.6 | 19 |  | 
O=C(NC1Cc2ccccc2C1)c1ccc(-c2cccnc2)cc1 [Compound 435, N-INDAN-2-YL-4-PYRIDIN-3-YL-BENZAMIDE] |  | 2.5 | 14 |  | 
O=C(NC1Cc2ccccc2C1)c1ccc(-c2ccccn2)cc1 [Compound 436, N-INDAN-2-YL-4-PYRIDIN-2-YL-BENZAMIDE] |  | 2.6 | 18 |  | 
O=C(NC1Cc2cccc(C(F)(F)F)c2C1)c1ccc(F)cc1 (stereo not shown) [Compound 439, 4-FLUORO-N-(4-TRIFLUOROMETHYL-INDAN-2-YL)-BENZAMIDE] |  | 2.6 | 8.9 |  | 

— patent US7713963B2, “Acylated indanyl amines and their use as pharmaceuticals” (sanofi-aventis Deutschland GmbH, priority 2001, dated 2010)
